Numbers after ± are expanded uncertainties.
Assay: mn = molality of the nth substance listed, in mol/kg
Conditions: 101 kPa, Liquid, Vibrating tube method

Q: Which mass density (293.15 K, m1 = 0.04) does the source give for `CCCCCCCCCCCC[N+](C)(C)CCOc1ccccc1.[Br-]` [Domiphen bromide] + O here?
A: 999.65 ± 1 kg/m3

Q: And the mass density (293.15 K, m1 = 0.08)?
A: 1000.98 ± 1 kg/m3

Q: What about the mass density (298.15 K, m1 = 0.04) of the same compound?
A: 998.37 ± 1 kg/m3

Q: And the mass density (298.15 K, m1 = 0.08)?
A: 999.84 ± 1 kg/m3

Q: What about the mass density (303.15 K, m1 = 0.04) of the same compound?
A: 996.97 ± 1 kg/m3

Q: And the mass density (303.15 K, m1 = 0.08)?
A: 998.36 ± 1 kg/m3

Q: What about the mass density (308.15 K, m1 = 0.04) of the same compound?
A: 995.39 ± 1 kg/m3

Q: What about the mass density (308.15 K, m1 = 0.08) of the same compound?
A: 996.78 ± 1 kg/m3

Reference: the NIST ThermoML archive (doi:10.1016/j.jct.2016.06.018)
